In patent US11407767B2, “Heterocyclyl substituted pyrrolopyridines that are inhibitors of the CDK12 kinase” (The University of Nottingham, priority 2017, dated 2022):
Counter-ions that a name gives are not always drawn.

Target: CDK12/CycK (Homo sapiens, UniProt Q9NYV4)
Assay: Inhibition of CDK12 (ADP-Glo kinase assay)
Assay type: biochemical
Conditions: 60 nM CDK12/CycK, 30 minutes pre-incubation, 1 μM ATP, 0.5 μM RBER-IRStide substrate, 1 h at 25° C., read-out: CDK12/cyclin K IC50
Procedure, shortened: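 ADP-Glo luminescence read after a 1 h, 25 °C reaction with 1 μM ATP and 0.5 μM RBER-IRStide peptide. Enzyme (60 nM) and compound were first pre-incubated 30 min; buffer 50 mM HEPES pH 7.5, 20 mM MgCl2, 3 mM MnCl2, 1% DMSO. IC50 fitted after blank subtraction.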

CDK12/CycK, sequence (Q9NYV4 whole entry): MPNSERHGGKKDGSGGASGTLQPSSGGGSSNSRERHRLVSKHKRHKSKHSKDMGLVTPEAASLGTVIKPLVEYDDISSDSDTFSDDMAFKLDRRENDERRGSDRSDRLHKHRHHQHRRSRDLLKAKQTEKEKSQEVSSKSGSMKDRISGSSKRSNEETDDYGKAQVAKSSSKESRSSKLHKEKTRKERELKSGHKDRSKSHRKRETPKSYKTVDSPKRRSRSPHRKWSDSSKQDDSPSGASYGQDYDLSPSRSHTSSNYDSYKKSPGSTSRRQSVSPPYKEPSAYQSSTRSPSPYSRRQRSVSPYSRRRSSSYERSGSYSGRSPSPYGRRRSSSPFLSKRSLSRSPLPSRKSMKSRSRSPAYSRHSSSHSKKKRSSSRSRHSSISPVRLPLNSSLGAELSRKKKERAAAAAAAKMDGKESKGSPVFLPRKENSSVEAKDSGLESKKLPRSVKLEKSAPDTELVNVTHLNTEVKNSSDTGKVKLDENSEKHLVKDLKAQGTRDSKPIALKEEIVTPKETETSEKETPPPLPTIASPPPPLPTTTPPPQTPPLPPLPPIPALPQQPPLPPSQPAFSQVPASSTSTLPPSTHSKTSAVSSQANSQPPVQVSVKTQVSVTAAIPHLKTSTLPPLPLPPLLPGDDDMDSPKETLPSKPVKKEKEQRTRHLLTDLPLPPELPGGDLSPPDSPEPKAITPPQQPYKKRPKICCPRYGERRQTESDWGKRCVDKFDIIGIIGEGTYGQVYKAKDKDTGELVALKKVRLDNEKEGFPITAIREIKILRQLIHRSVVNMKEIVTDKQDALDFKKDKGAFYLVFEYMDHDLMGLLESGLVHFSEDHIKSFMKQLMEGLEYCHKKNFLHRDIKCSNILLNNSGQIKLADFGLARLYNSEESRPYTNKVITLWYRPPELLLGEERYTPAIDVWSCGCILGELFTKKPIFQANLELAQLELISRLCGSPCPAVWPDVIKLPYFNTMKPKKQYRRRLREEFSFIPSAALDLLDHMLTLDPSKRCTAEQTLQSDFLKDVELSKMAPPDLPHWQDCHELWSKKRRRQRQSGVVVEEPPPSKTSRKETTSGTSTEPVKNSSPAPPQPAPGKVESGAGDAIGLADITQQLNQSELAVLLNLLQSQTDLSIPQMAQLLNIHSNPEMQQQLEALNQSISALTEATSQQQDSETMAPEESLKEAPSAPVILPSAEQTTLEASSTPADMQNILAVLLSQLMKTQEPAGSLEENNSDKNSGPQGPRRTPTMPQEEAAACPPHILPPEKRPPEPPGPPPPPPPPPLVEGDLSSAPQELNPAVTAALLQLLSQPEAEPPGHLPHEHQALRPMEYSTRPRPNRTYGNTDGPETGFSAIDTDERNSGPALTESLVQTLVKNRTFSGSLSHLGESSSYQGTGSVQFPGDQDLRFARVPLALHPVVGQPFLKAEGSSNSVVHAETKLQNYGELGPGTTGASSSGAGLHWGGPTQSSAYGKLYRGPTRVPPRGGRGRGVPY
CDK12/CycK, sequence (O75909 whole entry partner): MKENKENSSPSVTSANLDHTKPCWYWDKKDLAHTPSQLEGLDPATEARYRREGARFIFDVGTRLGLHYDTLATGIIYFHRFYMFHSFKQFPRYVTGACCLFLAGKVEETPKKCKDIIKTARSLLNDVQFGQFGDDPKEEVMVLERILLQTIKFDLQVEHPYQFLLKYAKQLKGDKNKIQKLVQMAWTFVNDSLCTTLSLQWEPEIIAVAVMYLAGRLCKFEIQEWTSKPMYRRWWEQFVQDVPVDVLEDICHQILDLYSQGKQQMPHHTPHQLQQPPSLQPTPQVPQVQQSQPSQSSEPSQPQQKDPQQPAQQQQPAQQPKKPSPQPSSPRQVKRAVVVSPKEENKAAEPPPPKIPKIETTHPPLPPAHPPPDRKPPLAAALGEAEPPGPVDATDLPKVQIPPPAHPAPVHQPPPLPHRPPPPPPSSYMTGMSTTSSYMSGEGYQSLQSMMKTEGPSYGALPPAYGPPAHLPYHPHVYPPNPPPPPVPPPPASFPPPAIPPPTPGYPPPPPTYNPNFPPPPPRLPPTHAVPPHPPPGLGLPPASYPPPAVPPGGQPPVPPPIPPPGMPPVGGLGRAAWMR

| IC50 | Compound |
| --- | --- |
| < 100 nM | C=CC(=O)N1CCOC[C@H]1C(=O)NCCc1cc2c(-c3cnn4ncccc34)ccnc2[nH]1 [Example 165, (S)-4-Acryloyl-N-(2-(4-(pyrazolo[1,5-b]pyridazin-3-yl)-1H-pyrrolo[2,3-b]pyridin-2-yl)ethyl)morpholine-3-carboxamide] |
| 100 to 1000 nM | O=C(NCCc1cc2c(-c3cnn4ncccc34)ccnc2[nH]1)[C@@H]1CCCN1C(=O)C1=CCCC1 [Example 166, (S)-1-(Cyclopent-1-ene-1-carbonyl)-N-(2-(4-(pyrazolo[1,5-b]pyridazin-3-yl)-1H-pyrrolo[2,3-b]pyridin-2-yl)ethyl)pyrrolidine-2-carboxamide] |
| 1000 to 30000 nM | CN1CCC(OCc2cc3c(-c4cnn5ncccc45)ccnc3[nH]2)CC1 [Example 167, 3-(2-(((1-Methylpiperidin-4-yl)oxy)methyl)-1H-pyrrolo[2,3-b]pyridin-4-yl)pyrazolo[1,5-b]pyridazine diformate] |
| 1000 to 30000 nM | CN(C)CCOCc1cc2c(-c3cnn4ncccc34)ccnc2[nH]1 [Example 168, N,N-Dimethyl-2-((4-(pyrazolo[1,5-b]pyridazin-3-yl)-1H-pyrrolo[2,3-b]pyridin-2-yl)methoxy)ethan-1-amine Formate] |
| < 100 nM | O=C(CCl)Nc1ccccc1C(=O)N1CCC(c2cc3c(-c4cnn5ncccc45)ccnc3[nH]2)C1 (centres unmarked) [Example 169, 2-Chloro-N-(2-(3-(4-(pyrazolo[1,5-b]pyridazin-3-yl)-1H-pyrrolo[2,3-b]pyridin-2-yl)pyrrolidine-1-carbonyl)phenyl)acetamide] |
| < 100 nM | CCC(=O)Nc1cccc(C(=O)N2CCC(c3cc4c(-c5cnn6ncccc56)ccnc4[nH]3)C2)c1 (centres unmarked) [Example 173, N-(3-(3-(4-(Pyrazolo[1,5-b]pyridazin-3-yl)-1H-pyrrolo[2,3-b]pyridin-2-yl)pyrrolidine-1-carbonyl)phenyl)propionamide] |
| 1000 to 30000 nM | C=CC(=O)N1CC[C@H](C(=O)NCc2cc3c(-c4cnn5ncccc45)ccnc3[nH]2)C1 [Example 178, (S)-1-Acryloyl-N-((4-(pyrazolo[1,5-b]pyridazin-3-yl)-1H-pyrrolo[2,3-b]pyridin-2-yl)methyl)pyrrolidine-3-carboxamide] |
| 1000 to 30000 nM | C=CC(=O)N1CC[C@@H](C(=O)NCc2cc3c(-c4cnn5ncccc45)ccnc3[nH]2)C1 [Example 179, (R)-1-Acryloyl-N-((4-(pyrazolo[1,5-b]pyridazin-3-yl)-1H-pyrrolo[2,3-b]pyridin-2-yl)methyl)pyrrolidine-3-carboxamide] |
| 100 to 1000 nM | C=CC(=O)Nc1cccc(C(=O)NCc2cc3c(-c4cnn5ncccc45)ccnc3[nH]2)c1 [Example 180, 3-Acrylamido-N-((4-(pyrazolo[1,5-b]pyridazin-3-yl)-1H-pyrrolo[2,3-b]pyridin-2-yl)methyl)benzamide] |
| 100 to 1000 nM | CN(C)C/C=C/C(=O)Nc1ccc(C(=O)NCc2cc3c(-c4cnn5ncccc45)ccnc3[nH]2)cc1 [Example 181] |
| 1000 to 30000 nM | C=CC(=O)N1CCC[C@@H]1C(=O)NCc1cc2c(-c3cnn4ncccc34)ccnc2[nH]1 [Example 182, (R)-1-Acryloyl-N-((4-(pyrazolo[1,5-b]pyridazin-3-yl)-1H-pyrrolo[2,3-b]pyridin-2-yl)methyl)pyrrolidine-2-carboxamide] |
| 1000 to 30000 nM | C=CC(=O)N1CCC[C@H]1C(=O)NCc1cc2c(-c3cnn4ncccc34)ccnc2[nH]1 [Example 183, (S)-1-Acryloyl-N-((4-(pyrazolo[1,5-b]pyridazin-3-yl)-1H-pyrrolo[2,3-b]pyridin-2-yl)methyl)pyrrolidine-2-carboxamide] |
| 1000 to 30000 nM | C=CC(=O)N1CCC[C@@H](C(=O)NCc2cc3c(-c4cnn5ncccc45)ccnc3[nH]2)C1 [Example 184, (R)-1-Acryloyl-N-((4-(pyrazolo[1,5-b]pyridazin-3-yl)-1H-pyrrolo[2,3-b]pyridin-2-yl)methyl)piperidine-3-carboxamide] |
| < 100 nM | C=CC(=O)Nc1ccc(C(=O)N(C)Cc2cc3c(-c4cnn5ncccc45)ccnc3[nH]2)cc1 [Example 185, 4-Acrylamido-N-methyl-N-((4-(pyrazolo[1,5-b]pyridazin-3-yl)-1H-pyrrolo[2,3-b]pyridin-2-yl)methyl)benzamide] |
| 1000 to 30000 nM | C=CC(=O)N1CCC[C@H](C(=O)NCc2cc3c(-c4cnn5ncccc45)ccnc3[nH]2)C1 [Example 186, (S)-1-Acryloyl-N-((4-(pyrazolo[1,5-b]pyridazin-3-yl)-1H-pyrrolo[2,3-b]pyridin-2-yl)methyl)piperidine-3-carboxamide] |
| 1000 to 30000 nM | C=CC(=O)N[C@H]1CC[C@@H](C(=O)NCc2cc3c(-c4cnn5ncccc45)ccnc3[nH]2)CC1 [Example 187, (1s,4s)-4-Acrylamido-N-((4-(pyrazolo[1,5-b]pyridazin-3-yl)-1H-pyrrolo[2,3-b]pyridin-2-yl)methyl)cyclohexane-1-carboxamide] |

| IC50 | Compound |
| --- | --- |
| 1000 to 30000 nM | CCC(=O)Nc1ccc(C(=O)NCc2cc3c(-c4cnn5ncccc45)ccnc3[nH]2)cc1 [Example 188, 4-Propionamido-N-((4-(pyrazolo[1,5-b]pyridazin-3-yl)-1H-pyrrolo[2,3-b]pyridin-2-yl)methyl)benzamide] |
| 1000 to 30000 nM | C=CC(=O)NCc1ccc(C(=O)NCc2cc3c(-c4cnn5ncccc45)ccnc3[nH]2)cc1 [Example 189, 4-(Acrylamidomethyl)-N-((4-(pyrazolo[1,5-b]pyridazin-3-yl)-1H-pyrrolo[2,3-b]pyridin-2-yl)methyl)benzamide] |
| 100 to 1000 nM | C=CC(=O)N(C)c1ccc(C(=O)NCc2cc3c(-c4cnn5ncccc45)ccnc3[nH]2)cc1 [Example 190, 4-(N-Methylacrylamido)-N-((4-(pyrazolo[1,5-b]pyridazin-3-yl)-1H-pyrrolo[2,3-b]pyridin-2-yl)methyl)benzamide] |
| 1000 to 30000 nM | C=CC(=O)N[C@H]1CC[C@H](C(=O)NCc2cc3c(-c4cnn5ncccc45)ccnc3[nH]2)CC1 [Example 191, (1r,4r)-4-Acrylamido-N-((4-(pyrazolo[1,5-b]pyridazin-3-yl)-1H-pyrrolo[2,3-b]pyridin-2-yl)methyl)cyclohexane-1-carboxamide] |
| 1000 to 30000 nM | C=CC(=O)NCc1cccc(C(=O)NCc2cc3c(-c4cnn5ncccc45)ccnc3[nH]2)c1 [Example 192, 3-(Acrylamidomethyl)-N-((4-(pyrazolo[1,5-b]pyridazin-3-yl)-1H-pyrrolo[2,3-b]pyridin-2-yl)methyl)benzamide] |
| 1000 to 30000 nM | C=CC(=O)N1CCC(CC(=O)NCc2cc3c(-c4cnn5ncccc45)ccnc3[nH]2)CC1 [Example 193, 2-(1-Acryloylpiperidin-4-yl)-N-((4-(pyrazolo[1,5-b]pyridazin-3-yl)-1H-pyrrolo[2,3-b]pyridin-2-yl)methyl)acetamide] |
| < 100 nM | C=CC(=O)N1CCC[C@H]1C(=O)N1CCC(c2cc3c(-c4cnn5ncccc45)ccnc3[nH]2)CC1 [Example 194, (S)-1-(2-(4-(4-(Pyrazolo[1,5-b]pyridazin-3-yl)-1H-pyrrolo[2,3-b]pyridin-2-yl)piperidine-1-carbonyl)pyrrolidin-1-yl)prop-2-en-1-one] |
| < 100 nM | C=CC(=O)N1CCC[C@@H]1C(=O)N1CCC(c2cc3c(-c4cnn5ncccc45)ccnc3[nH]2)CC1 [Example 195, (R)-1-(2-(4-(4-(pPyrazolo[1,5-b]pyridazin-3-yl)-1H-pyrrolo[2,3-b]pyridin-2-yl)piperidine-1-carbonyl)pyrrolidin-1-yl)prop-2-en-1-one] |
| 1000 to 30000 nM | C=CC(=O)N1CCC2(CCCN(Cc3cc4c(-c5cnn6ncccc56)ccnc4[nH]3)C2)C1 (centres unmarked) [Example 198, 1-(7-((4-(Pyrazolo[1,5-b]pyridazin-3-yl)-1H-pyrrolo[2,3-b]pyridin-2-yl)methyl)-2,7-diazaspiro[4.5]decan-2-yl)prop-2-en-1-one] |
| 1000 to 30000 nM | C=CC(=O)NCC1CCN(Cc2cc3c(-c4cnn5ncccc45)ccnc3[nH]2)C1 (centres unmarked) [Example 199, N-((1-((4-(Pyrazolo[1,5-b]pyridazin-3-yl)-1H-pyrrolo[2,3-b]pyridin-2-yl)methyl)pyrrolidin-3-yl)methyl)acrylamide] |
| 100 to 1000 nM | N#CCC(=O)N1CCC[C@H]1C(=O)NCCc1cc2c(-c3cnn4ncccc34)ccnc2[nH]1 [Example 201, (S)-1-(2-Cyanoacetyl)-N-(2-(4-(pyrazolo[1,5-b]pyridazin-3-yl)-1H-pyrrolo[2,3-b]pyridin-2-yl)ethyl)pyrrolidine-2-carboxamide] |
| 1000 to 30000 nM | CC(C)=C(C#N)C(=O)N1CCC[C@H]1C(=O)NCCc1cc2c(-c3cnn4ncccc34)ccnc2[nH]1 [Example 202, (S)-1-(2-Cyano-3-methylbut-2-enoyl)-N-(2-(4-(pyrazolo[1,5-b]pyridazin-3-yl)-1H-pyrrolo[2,3-b]pyridin-2-yl)ethyl)pyrrolidine-2-carboxamide] |
| < 100 nM | C=CC(=O)N1CCC[C@H]1C(=O)N[C@H]1C[C@@H](c2cc3c(-c4cnn5ncccc45)ccnc3[nH]2)C1 [Example 205, (S)-1-Acryloyl-N-((1 S,3R)-3-(4-(pyrazolo[1,5-b]pyridazin-3-yl)-1H-pyrrolo[2,3-b]pyridin-2-yl)cyclobutyl)pyrrolidine-2-carboxamide] |
| < 100 nM | C=CC(=O)N1CCC[C@H](C(=O)N2CCC(c3cc4c(-c5cnn6ncccc56)ccnc4[nH]3)C2)C1 (stereo partly drawn) [Example 206, 1-((3S)-3-(3-(4-(Pyrazolo[1,5-b]pyridazin-3-yl)-1H-pyrrolo[2,3-b]pyridin-2-yl)pyrrolidine-1-carbonyl)piperidin-1-yl)prop-2-en-1-one] |
| < 100 nM | C=CC(=O)N1CCN(C(=O)/C=C/c2cc3c(-c4cnn5ncccc45)ccnc3[nH]2)CC1 [Example 209, (E)-1-(4-Acryloylpiperazin-1-yl)-3-(4-(pyrazolo[1,5-b]pyridazin-3-yl)-1H-pyrrolo[2,3-b]pyridin-2-yl)prop-2-en-1-one] |
| < 100 nM | C=CC(=O)NC1(C(=O)NCCCc2cc3c(-c4cnn5ncccc45)ccnc3[nH]2)CC1 [Example 214, 1-Acrylamido-N-(3-(4-(pyrazolo[1,5-b]pyridazin-3-yl)-1H-pyrrolo[2,3-b]pyridin-2-yl)propyl)cyclopropane-1-carboxamide] |
